Results: ChEMBL document CHEMBL5154675, “Design, Synthesis, and Biological Evaluation of 1-(Indolizin-3-yl)ethan-1-ones as CBP Bromodomain Inhibitors for the Treatment of Prostate Cancer” (J Med Chem, 2022)

Assays:
[1] = tested on: LNCaP C4-2B; assay: Antiproliferative activity against human LNCaP C4-2B cells assessed as inhibition of cell growth by Celltiter-Glo assay; assay type: functional, cell-based
[2] = molecular target: T1, CREB-binding protein (Homo sapiens, UniProt Q92793); assay: Inhibition of His6-tagged human CBP bromodomain (1081 to 1197 residues) expressed in Escherichia coli BL21 (DE3) incubated for 30 mins by HTRF assay
Target sequence in this assay (Q92793 whole entry, the tested form may be a part): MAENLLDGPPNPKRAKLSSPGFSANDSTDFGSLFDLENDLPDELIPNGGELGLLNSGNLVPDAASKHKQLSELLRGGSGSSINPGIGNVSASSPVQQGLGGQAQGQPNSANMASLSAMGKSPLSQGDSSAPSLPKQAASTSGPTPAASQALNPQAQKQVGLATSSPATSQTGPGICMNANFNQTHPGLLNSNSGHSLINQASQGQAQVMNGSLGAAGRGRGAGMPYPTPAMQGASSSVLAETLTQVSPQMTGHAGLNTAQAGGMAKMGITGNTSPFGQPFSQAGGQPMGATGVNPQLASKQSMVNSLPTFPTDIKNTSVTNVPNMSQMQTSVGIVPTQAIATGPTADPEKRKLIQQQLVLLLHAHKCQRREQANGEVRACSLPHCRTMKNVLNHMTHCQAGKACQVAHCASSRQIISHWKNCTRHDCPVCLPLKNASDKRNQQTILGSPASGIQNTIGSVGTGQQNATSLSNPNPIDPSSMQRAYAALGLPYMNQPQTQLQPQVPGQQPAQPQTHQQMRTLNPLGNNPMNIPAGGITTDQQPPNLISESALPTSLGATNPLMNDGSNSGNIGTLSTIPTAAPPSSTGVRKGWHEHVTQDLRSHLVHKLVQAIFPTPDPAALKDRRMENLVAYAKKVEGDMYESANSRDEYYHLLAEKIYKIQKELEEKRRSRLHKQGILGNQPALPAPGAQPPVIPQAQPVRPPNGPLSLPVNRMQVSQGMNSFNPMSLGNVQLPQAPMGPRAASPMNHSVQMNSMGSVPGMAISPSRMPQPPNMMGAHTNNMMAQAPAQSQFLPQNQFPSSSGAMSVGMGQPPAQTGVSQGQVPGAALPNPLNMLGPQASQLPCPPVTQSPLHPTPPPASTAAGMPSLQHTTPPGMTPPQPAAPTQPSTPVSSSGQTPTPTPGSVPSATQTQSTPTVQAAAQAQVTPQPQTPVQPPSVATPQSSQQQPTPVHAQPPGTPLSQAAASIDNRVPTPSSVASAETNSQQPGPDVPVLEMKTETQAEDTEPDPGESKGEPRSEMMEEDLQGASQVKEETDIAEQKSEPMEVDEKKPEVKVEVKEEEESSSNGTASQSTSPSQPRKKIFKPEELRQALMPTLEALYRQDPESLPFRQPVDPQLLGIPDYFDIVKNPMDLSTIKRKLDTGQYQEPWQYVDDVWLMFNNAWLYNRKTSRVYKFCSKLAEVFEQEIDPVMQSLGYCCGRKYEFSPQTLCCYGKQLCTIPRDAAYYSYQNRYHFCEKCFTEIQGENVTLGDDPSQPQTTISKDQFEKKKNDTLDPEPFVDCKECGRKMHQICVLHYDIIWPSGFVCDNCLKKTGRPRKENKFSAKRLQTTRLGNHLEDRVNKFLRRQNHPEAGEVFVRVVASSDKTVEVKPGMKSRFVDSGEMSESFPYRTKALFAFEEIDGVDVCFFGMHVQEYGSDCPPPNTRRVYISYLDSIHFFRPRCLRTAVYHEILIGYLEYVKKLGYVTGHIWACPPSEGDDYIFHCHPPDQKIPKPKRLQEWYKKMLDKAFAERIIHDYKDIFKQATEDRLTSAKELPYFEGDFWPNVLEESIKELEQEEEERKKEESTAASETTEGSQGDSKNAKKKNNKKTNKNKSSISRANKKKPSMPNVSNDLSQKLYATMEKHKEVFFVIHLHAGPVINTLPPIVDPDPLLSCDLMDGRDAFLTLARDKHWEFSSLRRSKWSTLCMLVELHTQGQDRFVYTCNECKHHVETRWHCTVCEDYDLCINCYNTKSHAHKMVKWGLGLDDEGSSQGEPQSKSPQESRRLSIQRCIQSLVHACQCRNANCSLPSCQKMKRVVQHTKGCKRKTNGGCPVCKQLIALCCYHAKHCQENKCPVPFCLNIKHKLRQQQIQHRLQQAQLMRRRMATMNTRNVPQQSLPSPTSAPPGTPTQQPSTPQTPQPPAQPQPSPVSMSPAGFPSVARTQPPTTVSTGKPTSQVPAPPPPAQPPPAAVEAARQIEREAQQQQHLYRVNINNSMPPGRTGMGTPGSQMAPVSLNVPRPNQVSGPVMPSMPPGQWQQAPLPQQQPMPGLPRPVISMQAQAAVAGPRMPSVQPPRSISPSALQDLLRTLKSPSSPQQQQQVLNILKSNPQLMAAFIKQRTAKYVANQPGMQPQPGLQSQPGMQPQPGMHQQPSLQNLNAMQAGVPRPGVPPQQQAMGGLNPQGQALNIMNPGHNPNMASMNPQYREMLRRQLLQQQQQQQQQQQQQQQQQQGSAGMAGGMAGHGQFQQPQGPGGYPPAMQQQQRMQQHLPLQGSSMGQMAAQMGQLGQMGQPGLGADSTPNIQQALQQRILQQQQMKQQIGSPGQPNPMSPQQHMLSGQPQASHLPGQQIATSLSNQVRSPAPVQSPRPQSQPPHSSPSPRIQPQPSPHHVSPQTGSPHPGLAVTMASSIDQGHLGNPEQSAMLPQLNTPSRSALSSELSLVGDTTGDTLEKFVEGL

[3] = molecular target: T1, CREB-binding protein; conditions: dose 200.0 µM, time 30.0 min
Target sequence in this assay (Q92793 2-2442 limits assumed): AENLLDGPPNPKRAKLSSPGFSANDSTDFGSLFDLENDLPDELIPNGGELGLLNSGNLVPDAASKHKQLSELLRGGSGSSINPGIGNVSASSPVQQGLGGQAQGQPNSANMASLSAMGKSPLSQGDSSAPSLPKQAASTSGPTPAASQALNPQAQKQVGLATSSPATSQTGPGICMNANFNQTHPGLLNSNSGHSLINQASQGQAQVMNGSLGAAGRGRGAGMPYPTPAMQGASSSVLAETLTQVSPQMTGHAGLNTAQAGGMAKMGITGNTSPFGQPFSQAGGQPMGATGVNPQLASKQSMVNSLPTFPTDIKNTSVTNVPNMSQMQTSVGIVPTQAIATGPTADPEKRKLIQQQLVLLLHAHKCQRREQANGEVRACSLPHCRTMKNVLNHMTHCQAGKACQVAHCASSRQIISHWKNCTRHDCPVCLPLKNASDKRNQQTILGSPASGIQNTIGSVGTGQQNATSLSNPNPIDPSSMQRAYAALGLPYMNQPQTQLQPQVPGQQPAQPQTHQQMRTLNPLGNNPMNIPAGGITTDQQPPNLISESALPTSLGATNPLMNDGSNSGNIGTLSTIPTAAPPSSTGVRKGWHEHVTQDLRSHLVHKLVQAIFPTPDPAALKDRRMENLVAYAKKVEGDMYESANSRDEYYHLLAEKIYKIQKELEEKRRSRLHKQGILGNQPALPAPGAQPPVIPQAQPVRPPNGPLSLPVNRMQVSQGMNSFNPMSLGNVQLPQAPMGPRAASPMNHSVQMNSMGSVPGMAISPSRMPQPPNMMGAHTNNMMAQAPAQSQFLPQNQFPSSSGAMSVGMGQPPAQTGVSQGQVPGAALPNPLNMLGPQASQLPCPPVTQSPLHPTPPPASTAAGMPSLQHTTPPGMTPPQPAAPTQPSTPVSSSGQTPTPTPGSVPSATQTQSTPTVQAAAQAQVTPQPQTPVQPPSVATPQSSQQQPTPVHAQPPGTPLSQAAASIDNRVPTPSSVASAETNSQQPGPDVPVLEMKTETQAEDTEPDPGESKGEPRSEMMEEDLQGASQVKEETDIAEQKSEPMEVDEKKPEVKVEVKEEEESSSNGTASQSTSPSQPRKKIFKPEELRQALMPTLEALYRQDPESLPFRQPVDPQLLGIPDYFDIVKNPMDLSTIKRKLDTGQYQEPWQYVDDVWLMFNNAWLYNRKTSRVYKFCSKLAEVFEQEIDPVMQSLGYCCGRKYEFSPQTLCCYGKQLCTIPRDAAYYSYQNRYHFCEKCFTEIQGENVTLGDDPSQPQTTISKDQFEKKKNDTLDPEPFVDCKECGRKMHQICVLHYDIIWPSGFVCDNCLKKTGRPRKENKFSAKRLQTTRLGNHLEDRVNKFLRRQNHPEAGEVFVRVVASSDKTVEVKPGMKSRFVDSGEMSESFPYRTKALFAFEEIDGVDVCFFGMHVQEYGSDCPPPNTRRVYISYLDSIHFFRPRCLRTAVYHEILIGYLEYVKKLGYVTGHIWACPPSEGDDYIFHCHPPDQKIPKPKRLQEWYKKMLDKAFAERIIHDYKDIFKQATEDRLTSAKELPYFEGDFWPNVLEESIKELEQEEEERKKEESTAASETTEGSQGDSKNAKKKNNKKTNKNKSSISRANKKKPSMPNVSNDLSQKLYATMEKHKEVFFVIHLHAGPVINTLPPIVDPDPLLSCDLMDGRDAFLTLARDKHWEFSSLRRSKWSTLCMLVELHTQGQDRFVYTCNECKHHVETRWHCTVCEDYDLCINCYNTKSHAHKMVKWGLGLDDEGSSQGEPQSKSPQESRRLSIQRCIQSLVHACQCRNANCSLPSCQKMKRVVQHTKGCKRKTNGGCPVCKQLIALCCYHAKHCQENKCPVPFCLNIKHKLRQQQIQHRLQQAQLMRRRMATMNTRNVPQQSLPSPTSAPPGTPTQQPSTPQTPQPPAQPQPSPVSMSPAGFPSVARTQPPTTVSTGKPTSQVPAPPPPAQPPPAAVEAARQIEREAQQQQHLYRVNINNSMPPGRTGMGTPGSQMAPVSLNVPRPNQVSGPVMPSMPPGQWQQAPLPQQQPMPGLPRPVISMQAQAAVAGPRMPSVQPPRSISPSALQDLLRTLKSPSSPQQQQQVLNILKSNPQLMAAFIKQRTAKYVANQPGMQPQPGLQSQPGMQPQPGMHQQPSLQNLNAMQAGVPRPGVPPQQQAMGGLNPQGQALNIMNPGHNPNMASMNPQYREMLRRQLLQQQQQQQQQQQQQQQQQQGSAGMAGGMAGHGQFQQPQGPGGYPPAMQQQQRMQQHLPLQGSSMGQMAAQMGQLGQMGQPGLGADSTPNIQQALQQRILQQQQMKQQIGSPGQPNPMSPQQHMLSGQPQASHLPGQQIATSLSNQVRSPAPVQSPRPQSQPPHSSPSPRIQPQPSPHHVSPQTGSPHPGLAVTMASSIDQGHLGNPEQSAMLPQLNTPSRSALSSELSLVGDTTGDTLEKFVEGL

[4] = Apparent permeability across basolateral to apical side in human Caco-2 cells assessed as drug recovery at 10 uM measured after 2 hrs by LC-MS/MS analysis; assay type: ADME, cell-based; conditions: read-out: Drug recovery
[5] = Apparent permeability across apical to basolateral side in human Caco-2 cells at 10 uM measured after 2 hrs by LC-MS/MS analysis; assay type: ADME, cell-based
[6] = molecular target: T2, Bromodomain-containing protein 2 (Homo sapiens, UniProt P25440); conditions: dose 200.0 µM, time 30.0 min
[7] = molecular target: T3, Bromodomain testis-specific protein (Homo sapiens, UniProt Q58F21); conditions: dose 200.0 µM, time 30.0 min
[8] = tested on: LNCaP; assay: Antiproliferative activity against human LNCaP cells assessed as cell growth inhibition by Celltiter-Glo assay; assay type: functional, cell-based
[9] = molecular target: Histone acetyltransferase KAT2B (Homo sapiens) (UniProt Q92831); conditions: dose 200.0 µM, time 30.0 min
[10] = molecular target: T2, Bromodomain-containing protein 2; conditions: dose 200.0 µM, time 30.0 min; remark: listed apart in the source
[11] = molecular target: PH-interacting protein (Homo sapiens) (UniProt Q8WWQ0); conditions: dose 200.0 µM, time 30.0 min
[12] = molecular target: T4, Bromodomain-containing protein 4 (Homo sapiens, UniProt O60885); conditions: dose 200.0 µM, time 30.0 min
[13] = tested on: CWR22R; assay: Antiproliferative activity against human 22Rv1 cells assessed as cell growth inhibition by Celltiter-Glo assay; assay type: functional, cell-based
[14] = molecular target: T5, Bromodomain-containing protein 3 (Homo sapiens, UniProt Q15059); conditions: dose 200.0 µM, time 30.0 min
[15] = molecular target: T3, Bromodomain testis-specific protein; conditions: dose 200.0 µM, time 30.0 min; remark: listed apart in the source
[16] = molecular target: Histone acetyltransferase p300 (Homo sapiens) (UniProt Q09472); conditions: dose 200.0 µM, time 30.0 min
[17] = molecular target: T5, Bromodomain-containing protein 3; conditions: dose 200.0 µM, time 30.0 min; remark: listed apart in the source
[18] = molecular target: SWI/SNF-related matrix-associated actin-dependent regulator of chromatin subfamily A member 2 (Homo sapiens) (UniProt P51531); conditions: dose 200.0 µM, time 30.0 min
[19] = molecular target: Bromodomain adjacent to zinc finger domain protein 2B (Homo sapiens) (UniProt Q9UIF8); conditions: dose 200.0 µM, time 30.0 min
[20] = molecular target: Chromatin remodeling regulator CECR2 (Homo sapiens) (UniProt Q9BXF3); conditions: dose 200.0 µM, time 30.0 min
[21] = molecular target: T4, Bromodomain-containing protein 4; conditions: dose 200.0 µM, time 30.0 min; remark: listed apart in the source
[22] = molecular target: T6, Bromodomain-containing protein 9 (Homo sapiens) (UniProt Q9H8M2); conditions: dose 200.0 µM, time 30.0 min
T6 sequence (whole entry): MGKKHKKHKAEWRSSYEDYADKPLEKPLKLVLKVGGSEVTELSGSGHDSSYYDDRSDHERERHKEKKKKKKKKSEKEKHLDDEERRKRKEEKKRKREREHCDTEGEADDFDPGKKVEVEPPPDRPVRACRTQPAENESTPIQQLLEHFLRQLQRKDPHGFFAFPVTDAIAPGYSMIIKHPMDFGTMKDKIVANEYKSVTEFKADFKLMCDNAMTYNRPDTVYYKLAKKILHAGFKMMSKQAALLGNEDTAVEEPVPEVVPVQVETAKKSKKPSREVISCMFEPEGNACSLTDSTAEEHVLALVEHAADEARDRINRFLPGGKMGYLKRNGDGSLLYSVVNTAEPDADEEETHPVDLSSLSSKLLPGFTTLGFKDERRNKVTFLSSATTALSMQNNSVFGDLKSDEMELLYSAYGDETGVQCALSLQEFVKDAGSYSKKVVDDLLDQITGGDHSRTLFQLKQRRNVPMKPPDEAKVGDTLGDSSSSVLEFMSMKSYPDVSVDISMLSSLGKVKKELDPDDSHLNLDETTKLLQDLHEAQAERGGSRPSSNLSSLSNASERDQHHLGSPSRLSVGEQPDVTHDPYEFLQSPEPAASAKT

[23] = molecular target: T1, CREB-binding protein; assay: Binding affinity to His6-tagged human CBP bromodomain (1081 to 1197 residues) expressed in Escherichia coli BL21 (DE3) assessed as dissociation constant by ITC analysis
Target sequence in this assay (Q92793 whole entry, the tested form may be a part): as the sequence (Q92793 whole entry, the tested form may be a part) above

[24] = Apparent permeability across apical to basolateral side in human Caco-2 cells assessed as drug recovery at 10 uM measured after 2 hrs by LC-MS/MS analysis; assay type: ADME, cell-based; conditions: read-out: Drug recovery
[25] = Apparent permeability across basolateral to apical side in human Caco-2 cells at 10 uM measured after 2 hrs by LC-MS/MS analysis; assay type: ADME, cell-based

SMILES | IC50 [1] | IC50 [2] | ΔTm [3] | also measured
COc1ccn2c(C(C)=O)cc(C(=O)Nc3cc(CO)cc(-c4cnn(C)c4)c3F)c2c1 | 9.57 µM | 0.012 µM | 8.4 °C | 
C[C@H]1O[C@@H](O[C@H]2[C@@H](O)C[C@H](O[C@H]3[C@@H](O)C[C@H](O[C@H]4CC[C@@]5(C)[C@H](CC[C@@H]6[C@@H]5C[C@@H](O)[C@]5(C)[C@@H](C7=CC(=O)OC7)CC[C@]65O)C4)O[C@@H]3C)O[C@@H]2C)C[C@H](O)[C@@H]1O [DIGOXIN] |  |  |  | recovery at 2 h, 10 µM [4]: 92.7%; Papp A→B at 2 h, 10 µM [5]: 1.26 ×10⁻⁶ cm/s
CC(=O)c1cc(C(=O)Nc2cc(CO)cc(-c3cnn(C)c3)c2F)c2cc(CN)ccn12 | 13.4 µM | 0.0556 µM | 8.7 °C | 
CC(C)C(=O)c1cc(C(=O)Nc2cc(CO)cc(-c3cnn(C)c3)c2F)c2cc(O)ccn12 | 37 µM |  | 1.8 °C | 
C[C@@H]1CC(=O)Nc2cccc(-c3ccc4c(c3)c(-c3cnn(C)c3)nn4C)c2N1 | 3.35 µM | 0.014 µM | 14.3 °C | ΔTm [6]: 1.3 °C; ΔTm [7]: 1.8 °C; IC50 [8]: 0.65 µM; ΔTm [9]: -0.2 °C; ΔTm [10]: 1 °C; ΔTm [11]: 0 °C; ΔTm [12]: 5 °C; IC50 [13]: 3.13 µM; ΔTm [14]: 1 °C; ΔTm [15]: -0.5 °C; ΔTm [16]: 15.5 °C; ΔTm [17]: 1.5 °C; ΔTm [18]: -0.3 °C; ΔTm [19]: -0.2 °C; ΔTm [20]: -0.2 °C; ΔTm [21]: 0 °C; ΔTm [22]: 7 °C; Kd [23]: 0.068 µM
CC(=O)c1cc(C(=O)Nc2cc(C(C)O)cc(-c3cnn(C4CC4)c3)c2F)c2cc(O)ccn12 (centres undefined) | 42 µM | 0.079 µM | 12 °C | 
COc1ccn2c(C(C)=O)cc(C(=O)Nc3cc(Cl)cc(-c4cnn(C)c4)c3F)c2c1 | 9.28 µM | 0.0552 µM | 6 °C | 
COc1ccn2c(C(C)=O)cc(C(=O)Nc3cc(C(F)(F)F)cc(-c4cnn(C)c4)c3F)c2c1 | > 50 µM |  | 2.7 °C | 
CNc1ccn2c(C(C)=O)cc(C(=O)Nc3cc(CO)cc(-c4cnn(C)c4)c3F)c2c1 | > 50 µM | 0.0021 µM | 9.9 °C | 
CC(=O)c1cc(C(=O)Nc2cc(C(C)O)cc(-c3cnn(C4CC4)c3)c2F)c2cc(OC(=O)N(C)C)ccn12 (centres undefined) | 9.09 µM | 0.0262 µM | 10 °C | 
CC(C)NCC(O)COc1cccc2ccccc12 (centres undefined) [PROPRANOLOL] |  |  |  | recovery at 2 h, 10 µM [4]: 90.7%; recovery at 2 h, 10 µM [24]: 85%; Papp A→B at 2 h, 10 µM [5]: 28.3 ×10⁻⁶ cm/s; Papp B→A at 2 h, 10 µM [25]: 18.9 ×10⁻⁶ cm/s
CC(=O)c1cc(C(=O)Nc2cc(CO)cc(-c3cnn(C)c3)c2F)c2cc(OCc3ccccc3)ccn12 | 49.7 µM |  | 3.9 °C | 
COc1ccn2c(C(C)=O)cc(C(=O)Nc3cc(C(N)=O)cc(-c4cnn(C)c4)c3F)c2c1 |  |  | 2.4 °C | 
CC(=O)c1cc(C(=O)Nc2cc(CO)cc(-c3cnn(C)c3)c2F)c2cc(O)ccn12 | 34.2 µM |  | 12.6 °C | Kd [23]: 0.044 µM
Cn1cc(-c2cc(CO)cc(NC(=O)c3cc(C(=O)C4CC4)n4ccc(O)cc34)c2F)cn1 |  |  | 2.1 °C | 
CC(=O)c1cc(C(=O)Nc2cc(CO)cc(-c3cnn(C4CC4)c3)c2F)c2cc(O)ccn12 | 29 µM | 0.0248 µM | 14.1 °C | 
